ChEMBL document CHEMBL1201862, “PubChem BioAssay data set” (2004)
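How tested: cells in 96-well plates exposed to compound for 48 hours at five concentrations. GI50 marks 50% less growth.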 Activity calls are given as the source filed them. Cut-off read from the data, not from the text of the source: active = GI50 up to about 1.1 µM and inactive = higher.

Key:
Assay in all cases: NCI tumour cell line growth inhibition, 48 h
[1] = system: 786-0
[2] = system: A498
[3] = system: ACHN
[4] = system: HT-29
[5] = system: K562
[6] = system: M14
[7] = system: MCF7
[8] = system: MDA-MB-231
[9] = system: NCI-H23
[10] = system: NCI-H522
[11] = system: RXF 393
[12] = system: SF-268
[13] = system: SNB-19
[14] = system: SNB-75
[15] = system: T47D
[16] = system: TK-10
[17] = system: UACC-62
[18] = system: UO-31
[19] = system: SK-MEL-28
[20] = system: SN12C

SMILES | GI50 [1] | GI50 [2] | GI50 [3] | GI50 [4] | GI50 [5] | GI50 [6] | GI50 [7] | GI50 [8] | GI50 [9] | GI50 [10] | GI50 [11] | GI50 [12] | GI50 [13] | GI50 [14] | GI50 [15] | GI50 [16] | GI50 [17] | GI50 [18] | GI50 [19] | GI50 [20]
CN1CC2CN(Cc3ccccc3)CCN2c2cccnc21 (stereo unspecified) | 52.1 µM (inactive) | 95.3 µM (inactive) | 45.2 µM (inactive) | 29.1 µM (inactive) | 29.2 µM (inactive) | 60.7 µM (inactive) | 39.9 µM (inactive) | 97.1 µM (inactive) | 39 µM (inactive) | 28.8 µM (inactive) | > 100 µM (inactive) | 54.3 µM (inactive) | 64.7 µM (inactive) | 41.3 µM (inactive) | 53.7 µM (inactive) | > 100 µM (inactive) | 68.4 µM (inactive) | 69.3 µM (inactive) |  | 
CCCN(CCC)C1CCc2c(ccc3cc[nH]c23)C1 (stereo unspecified) | > 100 µM (inactive) | > 100 µM (inactive) | > 100 µM (inactive) | 33.5 µM (inactive) | 30.5 µM (inactive) | 17.7 µM (inactive) | 77.3 µM (inactive) | 41.3 µM (inactive) | > 100 µM (inactive) | > 100 µM (inactive) | > 100 µM (inactive) | 94.2 µM (inactive) | > 100 µM (inactive) | 25.6 µM (inactive) | > 100 µM (inactive) | > 100 µM (inactive) | 50.9 µM (inactive) | 49 µM (inactive) | 31.9 µM (inactive) | > 100 µM (inactive)
COc1ccc2nc3cc(Cl)ccc3c(NCCCCCC(=O)NC(COc3cnc4c(ccc5cccnc54)c3)COc3cnc4c(ccc5cccnc54)c3)c2c1 | 11 µM (inactive) | 23.2 µM (inactive) | 36.6 µM (inactive) | 5.45 µM (inactive) | 3.43 µM (inactive) | 77.1 µM (inactive) | 5.04 µM (inactive) | 6.34 µM (inactive) | 28.2 µM (inactive) | 26.9 µM (inactive) | 10.8 µM (inactive) | 12.8 µM (inactive) | 13.6 µM (inactive) | 0.0313 µM (active) | 7.29 µM (inactive) | 27.5 µM (inactive) | 21.4 µM (inactive) | 74.5 µM (inactive) | 17.6 µM (inactive) | 22.9 µM (inactive)
CNc1ncnc2c1cnn2COCC(O)CO (stereo unspecified) | > 100 µM (inactive) | > 100 µM (inactive) | > 100 µM (inactive) | > 100 µM (inactive) | > 100 µM (inactive) | > 100 µM (inactive) | > 100 µM (inactive) | > 100 µM (inactive) | > 100 µM (inactive) | > 100 µM (inactive) | > 100 µM (inactive) | > 100 µM (inactive) | > 100 µM (inactive) | > 100 µM (inactive) | > 100 µM (inactive) | > 100 µM (inactive) | > 100 µM (inactive) | > 100 µM (inactive) | > 100 µM (inactive) | > 100 µM (inactive)
Cc1cc(N(CCC#N)CCC#N)ccc1C(/N=N\c1ccc(C(=O)O)cc1)=N\NC(=O)c1cc(Cl)ccc1O | 19.3 µM (inactive) | 28.6 µM (inactive) | 31.7 µM (inactive) | > 100 µM (inactive) | > 100 µM (inactive) | > 100 µM (inactive) | 32.4 µM (inactive) | 26.6 µM (inactive) | 39.2 µM (inactive) | 17.1 µM (inactive) | 25.4 µM (inactive) | 19.2 µM (inactive) | 23.6 µM (inactive) | 22.6 µM (inactive) | 40.7 µM (inactive) | 40.2 µM (inactive) | 31.1 µM (inactive) | 22.1 µM (inactive) |  | > 100 µM (inactive)
O=P1(Oc2ccccc2)NCc2ncccc2O1 (stereo unspecified) | > 100 µM (inactive) | > 100 µM (inactive) | > 100 µM (inactive) | > 100 µM (inactive) | > 100 µM (inactive) | > 100 µM (inactive) | > 100 µM (inactive) | > 100 µM (inactive) | > 100 µM (inactive) |  | > 100 µM (inactive) |  | > 100 µM (inactive) | > 100 µM (inactive) | > 100 µM (inactive) |  | > 100 µM (inactive) | > 100 µM (inactive) | > 100 µM (inactive) | > 100 µM (inactive)
COc1ccc(C)cc1NC(=S)C#N | > 100 µM (inactive) | > 100 µM (inactive) | 30.3 µM (inactive) | 30.8 µM (inactive) | > 100 µM (inactive) | 30.5 µM (inactive) | 32.2 µM (inactive) | > 100 µM (inactive) | 33.3 µM (inactive) |  | 28.1 µM (inactive) | 27.5 µM (inactive) | 28.9 µM (inactive) | 25.1 µM (inactive) | > 100 µM (inactive) | 31.9 µM (inactive) | 34.4 µM (inactive) |  | > 100 µM (inactive) | > 100 µM (inactive)
C=C1CC[C@@]2(OC1)OC1C[C@H]3[C@@H]4CC=C5C[C@@H](O)CC(OC6OCC(OC(=O)[C@@H](O)[C@@H](C)CC)C(OC(C)=O)C6OC6OC(C)C(O)C(O)C6O)[C@]5(C)[C@H]4CC[C@]3(C)C1[C@@H]2C (stereo partly specified) | 1.82 µM (inactive) | 1.81 µM (inactive) | 2.28 µM (inactive) | 2.82 µM (inactive) | 2.01 µM (inactive) | 2.11 µM (inactive) | 1.84 µM (inactive) | 1.75 µM (inactive) | 2.44 µM (inactive) | 1.76 µM (inactive) | 1.93 µM (inactive) | 2.06 µM (inactive) | 1.96 µM (inactive) | 2 µM (inactive) | 4.78 µM (inactive) | 1.88 µM (inactive) | 1.77 µM (inactive) | 2.4 µM (inactive) | 2.2 µM (inactive) | 2.25 µM (inactive)
CCCCCCCCOC(=O)C12Oc3ccc(-c4ccc5c(c4O)C(=O)C4=C(O)CC(C)C(O)C4(C(=O)OCCCCCCCC)O5)c(O)c3C(=O)C1=C(O)CC(C)C2O (stereo unspecified) | 19.1 µM (inactive) | 23.5 µM (inactive) | 5.61 µM (inactive) | 27.2 µM (inactive) | 2.93 µM (inactive) | 26.2 µM (inactive) | 11.4 µM (inactive) | 23.8 µM (inactive) | 10.2 µM (inactive) | 8.36 µM (inactive) | 2.7 µM (inactive) | 12.2 µM (inactive) | 8.85 µM (inactive) | 4.99 µM (inactive) | 16.2 µM (inactive) | 15.5 µM (inactive) | 15.8 µM (inactive) | 24.7 µM (inactive) | 18.2 µM (inactive) | 27.7 µM (inactive)
CCOC(=O)NN(C(=O)OCC)C(C(=O)C1=CCCCC1)N(NC(=O)OCC)C(=O)OCC | > 100 µM (inactive) | 22.6 µM (inactive) | > 100 µM (inactive) | > 100 µM (inactive) | > 100 µM (inactive) | > 100 µM (inactive) | > 100 µM (inactive) | > 100 µM (inactive) | > 100 µM (inactive) | > 100 µM (inactive) | > 100 µM (inactive) | > 100 µM (inactive) | > 100 µM (inactive) | > 100 µM (inactive) | > 100 µM (inactive) | > 100 µM (inactive) |  | > 100 µM (inactive) | > 100 µM (inactive) | > 100 µM (inactive)
Nc1nc(Cl)cc(NCC2(CO)CC(OCc3ccccc3)C2)n1 (stereo unspecified) | > 100 µM (inactive) | 16.9 µM (inactive) | > 100 µM (inactive) | > 100 µM (inactive) | 14.6 µM (inactive) |  | 30.7 µM (inactive) | 63.2 µM (inactive) | > 100 µM (inactive) | 93.1 µM (inactive) | 14.2 µM (inactive) | 14.8 µM (inactive) | 41.9 µM (inactive) | 16.4 µM (inactive) | 2.94 µM (inactive) | 19.4 µM (inactive) | 96.4 µM (inactive) | > 100 µM (inactive) | > 100 µM (inactive) | > 100 µM (inactive)
O=[N+]([O-])c1ccc2c(c1)n1c(N3CCCC3)[n+]3ccccc3c1c1c3ccccn3c(N3CCCC3)[n+]21.[O-][Cl+3]([O-])([O-])[O-].[O-][Cl+3]([O-])([O-])[O-] | > 100 µM (inactive) | > 100 µM (inactive) | 10 µM (inactive) |  | 23.7 µM (inactive) | > 100 µM (inactive) | 9.46 µM (inactive) | > 100 µM (inactive) | > 100 µM (inactive) | 29 µM (inactive) | > 100 µM (inactive) | 17.5 µM (inactive) | 45 µM (inactive) | 44 µM (inactive) | > 100 µM (inactive) | > 100 µM (inactive) | > 100 µM (inactive) |  | > 100 µM (inactive) | 51.8 µM (inactive)
COc1ccc(-c2nc3cc(F)ccc3s2)cc1O | 18.9 µM (inactive) | 29.7 µM (inactive) | 28.7 µM (inactive) | 26.4 µM (inactive) | 73.1 µM (inactive) | 26.5 µM (inactive) | 0.668 µM (active) | 39.6 µM (inactive) | 29.3 µM (inactive) | 16.3 µM (inactive) | 36.8 µM (inactive) | 28 µM (inactive) | 61.7 µM (inactive) |  | 0.514 µM (active) | 16.2 µM (inactive) | 30.7 µM (inactive) | 30.8 µM (inactive) | 75.7 µM (inactive) | 84.3 µM (inactive)
Cc1ccc2c(O)cc(-c3ccc(C)s3)nc2n1 | 0.443 µM (active) | 0.762 µM (active) | 0.731 µM (active) | 0.526 µM (active) | 0.423 µM (active) | 0.303 µM (active) | 0.27 µM (active) | 1.73 µM (inactive) | 0.277 µM (active) | 0.219 µM (active) | 0.656 µM (active) | 2.34 µM (inactive) | 0.644 µM (active) | 0.254 µM (active) | 0.506 µM (active) | 19.3 µM (inactive) | 0.35 µM (active) | 0.439 µM (active) |  | 0.556 µM (active)
